Structures can show the parent of a compound that is named as a salt. Where two headings read alike, the source gives them in different places.
Legend:
[1] = not given; remark: listed apart in the source

CC(NC(C)(C)C)C(=O)c1cccc(Cl)c1 (stereo not shown) [AB, bupropion hydrochloride]
stability / compatibility of bupropion hydrochloride (in words) (8 weeks): stable for the entire 8 weeks | ASSAY (25° C./60% RH, 4 wks): 97.6 | TOTAL RS > LOQ (25° C./60% RH, 4 wks): <LOQ | ASSAY (25° C./60% RH, 8 wks): 100.2 | TOTAL RS > LOQ (25° C./60% RH, 8 wks): 0.13 | ASSAY (40° C./75% RH, 2 wks): 100.4 | TOTAL RS > LOQ (40° C./75% RH, 2 wks): 0.43 | ASSAY (40° C./75% RH, 4 wks): 99.3 | TOTAL RS > LOQ (40° C./75% RH, 4 wks): 0.94 | ASSAY (40° C./75% RH, 8 wks): 101.3 | TOTAL RS > LOQ (40° C./75% RH, 8 wks): 1.16 | ASSAY (50° C./ambient, 2 wks): 100.6 | TOTAL RS > LOQ (50° C./ambient, 2 wks): 0.14 | ASSAY (T = 0 (initial)): 100.4 | TOTAL RS > LOQ (T = 0 (initial)): <LOQ

COc1ccc2c(c1)[C@]13CCCC[C@@H]1[C@H](C2)N(C)CC3 [AD, dextromethorphan hydrobromide monohydrate]
ASSAY ([1]; 25° C./60% RH, 4 wks): 102.5 | TOTAL RS ([1]; 25° C./60% RH, 4 wks): 0.25 | ASSAY ([1]; 25° C./60% RH, 8 wks): 100.2 | TOTAL RS ([1]; 25° C./60% RH, 8 wks): 0.20 | ASSAY ([1]; 40° C./75% RH, 4 wks): 101.5 | TOTAL RS ([1]; 40° C./75% RH, 4 wks): 0.18 | ASSAY ([1]; 40° C./75% RH, 8 wks): 100.1 | TOTAL RS ([1]; 40° C./75% RH, 8 wks): 0.72 | ASSAY ([1]; T = 0 (initial)): 101.4 | TOTAL RS ([1]; T = 0 (initial)): 0.21
